Data reported in paper doi:10.1101/2025.11.20.689572v1 (biorxiv, 2025).
Where two headings read alike, the source gives them in different places.

Columns and labels:
M2 = target: T1, M2 (Homo sapiens, UniProt P08172); test: competitive radioligand binding, HEK293 membranes
T1 construct: gene CHRM2; full-length receptor; HEK293 with TRUPATH sensors (function)
T1 sequence (P08172 1-466): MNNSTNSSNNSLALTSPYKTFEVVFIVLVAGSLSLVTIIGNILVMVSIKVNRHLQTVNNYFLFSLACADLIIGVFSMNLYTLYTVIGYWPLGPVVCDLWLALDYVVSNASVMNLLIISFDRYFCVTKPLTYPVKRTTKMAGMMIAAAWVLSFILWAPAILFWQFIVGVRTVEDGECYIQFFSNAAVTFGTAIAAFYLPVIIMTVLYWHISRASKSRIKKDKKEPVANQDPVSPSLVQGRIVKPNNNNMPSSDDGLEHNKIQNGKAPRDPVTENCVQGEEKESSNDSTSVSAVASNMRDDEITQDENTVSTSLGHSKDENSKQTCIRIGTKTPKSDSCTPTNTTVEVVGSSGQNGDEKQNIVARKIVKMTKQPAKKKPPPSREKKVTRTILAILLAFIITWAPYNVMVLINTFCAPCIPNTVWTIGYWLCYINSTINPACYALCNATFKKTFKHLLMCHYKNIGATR

HTR2C [1] = target: T2, HTR2C (Homo sapiens, UniProt P28335); test: cell-based; design: species or system HEK293; Fluo-4 Direct calcium mobilization on FLIPR-Tetra; conditions: HEK293, read-out: N-Desmethyl Xanomeline; Assay=Calcium; agonist mode, % of control agonist
T2 sequence (P28335 1-458): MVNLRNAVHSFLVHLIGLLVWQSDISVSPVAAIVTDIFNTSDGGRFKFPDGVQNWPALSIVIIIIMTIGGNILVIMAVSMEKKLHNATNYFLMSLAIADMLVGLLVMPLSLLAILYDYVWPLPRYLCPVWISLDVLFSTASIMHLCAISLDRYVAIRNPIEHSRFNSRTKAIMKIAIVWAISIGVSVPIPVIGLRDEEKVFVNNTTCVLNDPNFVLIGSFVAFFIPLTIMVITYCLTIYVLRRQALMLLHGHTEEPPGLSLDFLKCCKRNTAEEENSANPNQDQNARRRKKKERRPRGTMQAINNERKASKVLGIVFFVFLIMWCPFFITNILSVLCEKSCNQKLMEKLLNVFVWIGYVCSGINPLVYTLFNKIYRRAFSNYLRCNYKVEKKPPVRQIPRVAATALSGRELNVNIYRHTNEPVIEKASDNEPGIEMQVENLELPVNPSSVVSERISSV

HTR2C [2] = target: T2, HTR2C; test: cell-based; design: species or system HEK293; TRUPATH BRET2 G-protein dissociation; antagonist mode against agonist EC80; conditions: HEK293, read-out: N-Desmethyl Xanomeline, Assay=Gq; agonist mode, % of control agonist
HRH4 = HRH4 (Homo sapiens, UniProt Q9H3N8); test: cell-based; design: species or system HEK293; TRUPATH BRET2 G-protein dissociation; antagonist mode against agonist EC80; conditions: N-Desmethyl Xanomeline, agonist mode
Sequence of HRH4 (Q9H3N8 whole entry): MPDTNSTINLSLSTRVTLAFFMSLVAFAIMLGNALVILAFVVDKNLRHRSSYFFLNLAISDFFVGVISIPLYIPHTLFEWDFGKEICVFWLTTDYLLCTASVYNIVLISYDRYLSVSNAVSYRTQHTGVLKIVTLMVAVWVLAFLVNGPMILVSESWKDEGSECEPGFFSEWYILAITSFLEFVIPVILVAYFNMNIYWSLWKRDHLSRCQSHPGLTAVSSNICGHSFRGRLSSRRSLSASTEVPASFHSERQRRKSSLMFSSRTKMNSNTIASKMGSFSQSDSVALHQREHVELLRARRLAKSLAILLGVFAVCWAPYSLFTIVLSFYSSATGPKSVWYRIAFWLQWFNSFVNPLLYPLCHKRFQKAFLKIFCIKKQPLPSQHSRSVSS

HTR1D = HTR1D (Homo sapiens, UniProt P28221); test: cell-based; design: species or system HEK293; TRUPATH BRET2 G-protein dissociation; antagonist mode against agonist EC80; conditions: N-Desmethyl Xanomeline, agonist mode
Sequence of HTR1D (P28221 whole entry): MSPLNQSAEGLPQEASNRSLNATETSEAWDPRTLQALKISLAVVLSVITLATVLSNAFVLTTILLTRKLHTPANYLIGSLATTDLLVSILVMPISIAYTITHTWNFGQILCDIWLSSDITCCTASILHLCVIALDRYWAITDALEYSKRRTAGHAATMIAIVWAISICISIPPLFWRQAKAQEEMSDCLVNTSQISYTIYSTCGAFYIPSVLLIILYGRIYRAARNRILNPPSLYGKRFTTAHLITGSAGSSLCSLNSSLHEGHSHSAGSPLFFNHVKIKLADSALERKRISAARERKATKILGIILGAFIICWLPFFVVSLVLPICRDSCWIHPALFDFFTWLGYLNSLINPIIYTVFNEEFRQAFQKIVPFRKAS

HTR2C [3] = target: T2, HTR2C; test: cell-based; design: species or system HEK293; TRUPATH BRET2 G-protein dissociation; antagonist mode against agonist EC80; conditions: Assay=Gq; agonist mode
CHRM3 = CHRM3 (Homo sapiens, UniProt P20309); test: cell-based; design: species or system HEK293; TRUPATH BRET2 G-protein dissociation; antagonist mode against agonist EC80; conditions: Xanomeline, Assay=Gq; agonist mode
Sequence of CHRM3 (P20309 whole entry): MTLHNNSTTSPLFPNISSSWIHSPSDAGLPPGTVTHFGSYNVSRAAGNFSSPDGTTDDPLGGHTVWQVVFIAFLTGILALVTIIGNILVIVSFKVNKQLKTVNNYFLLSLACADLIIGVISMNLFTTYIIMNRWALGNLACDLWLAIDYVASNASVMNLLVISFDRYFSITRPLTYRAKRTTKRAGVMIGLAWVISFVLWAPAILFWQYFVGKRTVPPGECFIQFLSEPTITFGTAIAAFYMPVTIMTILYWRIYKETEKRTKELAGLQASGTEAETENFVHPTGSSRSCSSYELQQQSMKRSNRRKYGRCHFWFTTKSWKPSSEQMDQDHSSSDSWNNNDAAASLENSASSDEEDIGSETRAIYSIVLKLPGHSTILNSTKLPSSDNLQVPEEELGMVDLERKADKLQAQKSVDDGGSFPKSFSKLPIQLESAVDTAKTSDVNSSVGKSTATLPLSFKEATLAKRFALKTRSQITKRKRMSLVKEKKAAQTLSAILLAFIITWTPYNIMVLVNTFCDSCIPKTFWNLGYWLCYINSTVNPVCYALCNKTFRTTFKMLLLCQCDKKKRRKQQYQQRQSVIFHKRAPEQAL

β2 = β2 (Homo sapiens, UniProt P07550); test: biochemical; design: gene ADRB2; species or system HEK293; PDSP competitive radioligand binding, membranes of transfected HEK293 cells, filtration, Ki by Cheng-Prusoff
Sequence of β2 (P07550 whole entry): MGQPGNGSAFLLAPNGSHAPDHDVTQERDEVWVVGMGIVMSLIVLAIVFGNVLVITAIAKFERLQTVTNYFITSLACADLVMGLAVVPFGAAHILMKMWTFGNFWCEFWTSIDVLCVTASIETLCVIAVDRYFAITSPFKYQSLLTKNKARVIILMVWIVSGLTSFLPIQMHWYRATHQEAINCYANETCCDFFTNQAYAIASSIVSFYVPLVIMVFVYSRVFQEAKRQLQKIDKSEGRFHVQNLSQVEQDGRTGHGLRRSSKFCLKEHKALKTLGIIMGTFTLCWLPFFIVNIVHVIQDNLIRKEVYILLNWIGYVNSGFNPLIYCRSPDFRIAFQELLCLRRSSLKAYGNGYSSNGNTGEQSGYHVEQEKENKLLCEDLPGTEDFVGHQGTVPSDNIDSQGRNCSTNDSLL
Procedure: Competitive radioligand binding assays were performed at the NIMH Psychoactive Drug Screening Program (PDSP) using membranes from transiently transfected HEK293 cells in 96-well format as described. Complete, target-specific protocols are available at the PDSP website (https://pdsp.unc.edu/pdspweb/?site=assays). Primary screenings were run at a single test concentration (10 µM) in quadruplicate. […] Secondary assays were conducted in triplicate using 12-point serial dilutions (0, 0.1, 0.3, 1, 3, 10, 30, 100, 300 nM; 1, 3, 10 µM). Assays were performed in a final volume of 125 µL per well in binding buffer, as detailed in the NIMH PDSP protocols (e.g., standard binding buffer: 50 mM Tris-HCl, pH 7.4, 10 mM MgCl2, 0.1 mM EDTA). Radioligand concentrations were chosen near the target-specific Kd. […] After 90 min incubation at room temperature, reactions were terminated by vacuum filtration onto 0.3% polyethyleneimine-pretreated UniFilter-96 GF/C Microplates using a FilterMate harvester, washed three times with ice-cold buffer (50 mM Tris HCl, pH 7.4), dried, treated with MicroScint-O [compound left out] scintillation cocktails, and counted on a MicroBeta counter. Equilibrium inhibition constants (Ki) were calculated from fitted IC50 values using the Cheng–Prusoff equation [14] with the assay-specific radioligand concentration and Kd. […] ND=not determined.

SMILES	Ki (M2) [µM]	Emax (HTR2C [1]) [%]	Emax (HTR2C [2]) [%]	EC50 (HRH4; Assay=Gi1) [µM]	EC50 (HRH4; Assay=Gi2) [µM]	EC50 (HRH4; Assay=Gi3) [µM]	EC50 (HRH4; Assay=GoA) [µM]	EC50 (HTR1D; Assay=Gi2) [µM]	EC50 (HTR1D; Assay=GoA) [µM]	EC50 (HTR1D; Assay=GoB) [µM]	EC50 (HTR1D; Assay=Gz) [µM]	EC50 (HTR2C [3]) [µM]	EC50 (CHRM3) [µM]	Ki (β2) [µM]
CCCCCCOc1nsnc1C1=CCCNC1 [N-desmethylxanomeline]	1.45	59	106	4.87	1.39	6.36	6.25	0.0362	0.0631	0.0258	0.146	1.94	–	–
CCCCCCOc1nsnc1C1=CCCN(C)C1 [Xanomeline]	–	–	–	–	–	–	–	–	–	–	–	–	0.0534	> 10
